Laboratory results taken from PubChem BioAssay (NCI).
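96-well plates; 48 h exposure; 5 concentrations. Endpoints by linear interpolation between flanking doses. Not reached: highest tested concentration assigned. TGI: concentration producing complete growth inhibition.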

Assays:
Test in all cases: growth of human tumour cells (NCI), 48 h
SNB-75 CNS = test system: SNB-75 CNS
RPMI-8226 leukemia = test system: RPMI-8226 leukemia
786-0 renal = test system: 786-0 renal
SK-MEL-5 melanoma = test system: SK-MEL-5 melanoma
ACHN renal = test system: ACHN renal
CAKI-1 renal = test system: CAKI-1 renal
MCF7 breast = test system: MCF7 breast
NCI/ADR-RES ovarian = test system: NCI/ADR-RES ovarian
HCT-116 colon = test system: HCT-116 colon
HT29 colon = test system: HT29 colon
MOLT-4 leukemia = test system: MOLT-4 leukemia
UO-31 renal = test system: UO-31 renal
OVCAR-3 ovarian = test system: OVCAR-3 ovarian
SW-620 colon = test system: SW-620 colon
HCT-15 colon = test system: HCT-15 colon
HOP-62 NSCLC = test system: HOP-62 NSCLC
IGROV1 ovarian = test system: IGROV1 ovarian
RXF 393 renal = test system: RXF 393 renal
CCRF-CEM leukemia = test system: CCRF-CEM leukemia
PC-3 prostate = test system: PC-3 prostate
SK-OV-3 ovarian = test system: SK-OV-3 ovarian
NCI-H226 lung = test system: NCI-H226 lung
SK-MEL-2 melanoma = test system: SK-MEL-2 melanoma
SN12C renal = test system: SN12C renal
NCI-H522 lung = test system: NCI-H522 lung
UACC-62 melanoma = test system: UACC-62 melanoma
DU-145 prostate = test system: DU-145 prostate
M14 melanoma = test system: M14 melanoma
MDA-N = test system: MDA-N
OVCAR-4 ovarian = test system: OVCAR-4 ovarian
HOP-92 NSCLC = test system: HOP-92 NSCLC
MDA-MB-435 = test system: MDA-MB-435
LOX IMVI melanoma = test system: LOX IMVI melanoma
HCC-2998 colon = test system: HCC-2998 colon
TK-10 renal = test system: TK-10 renal
COLO 205 colon = test system: COLO 205 colon
EKVX NSCLC = test system: EKVX NSCLC
NCI-H23 lung = test system: NCI-H23 lung
T-47D breast = test system: T-47D breast
K-562 leukemia = test system: K-562 leukemia
OVCAR-8 ovarian = test system: OVCAR-8 ovarian
SR leukemia = test system: SR leukemia
SF-295 CNS = test system: SF-295 CNS
SF-539 CNS = test system: SF-539 CNS
A549 NSCLC = test system: A549 NSCLC
SF-268 CNS = test system: SF-268 CNS
SNB-19 CNS = test system: SNB-19 CNS
SK-MEL-28 melanoma = test system: SK-MEL-28 melanoma
MALME-3M melanoma = test system: MALME-3M melanoma
MDA-MB-231 breast = test system: MDA-MB-231 breast
UACC-257 melanoma = test system: UACC-257 melanoma
U251 CNS = test system: U251 CNS
BT-549 breast = test system: BT-549 breast
OVCAR-5 ovarian = test system: OVCAR-5 ovarian
KM12 colon = test system: KM12 colon
A498 renal = test system: A498 renal
NCI-H460 lung = test system: NCI-H460 lung
HS 578T breast = test system: HS 578T breast
HL-60(TB) leukemia = test system: HL-60(TB) leukemia

Measured: TGI

CC(=O)OC1CCC2(C)C(=CCC3C2CCC2(C)C(C(C)C(=O)O)CCC32)C1 (configuration not stated)
not listed: HL-60(TB) leukemia
> 100 µM: all other assays above

COc1ccccc1S(=O)Nc1ccccc1 (configuration not stated)
85.1 µM: KM12 colon
95.5 µM: T-47D breast
not listed: SNB-75 CNS | CAKI-1 renal | RXF 393 renal | PC-3 prostate | SK-OV-3 ovarian | M14 melanoma | HOP-92 NSCLC | A498 renal
> 100 µM: all other assays above

CCN(CC)Cc1nc(C2CCC([N+](=O)[O-])O2)no1 (configuration not stated)
35.7 µM: MDA-MB-435
56.7 µM: OVCAR-3 ovarian | BT-549 breast
30.2 µM: SK-MEL-5 melanoma
62.3 µM: U251 CNS
82.7 µM: HOP-62 NSCLC
30.7 µM: UACC-62 melanoma
79.6 µM: SF-268 CNS
37.5 µM: MDA-N
44.5 µM: HT29 colon | NCI-H460 lung
40.8 µM: UACC-257 melanoma
87.8 µM: SNB-19 CNS
60.4 µM: HCT-116 colon
82.4 µM: HS 578T breast
42.4 µM: HCC-2998 colon
84.2 µM: OVCAR-5 ovarian
40.5 µM: HL-60(TB) leukemia
30.3 µM: COLO 205 colon
53.8 µM: SK-MEL-28 melanoma
28.3 µM: M14 melanoma
38.1 µM: HCT-15 colon
31 µM: NCI-H522 lung
41.7 µM: NCI-H23 lung
72.6 µM: SK-MEL-2 melanoma
35.9 µM: SW-620 colon
32.2 µM: MCF7 breast
76.3 µM: NCI/ADR-RES ovarian
96.6 µM: SNB-75 CNS
49 µM: SF-539 CNS
98 µM: T-47D breast
30.1 µM: MALME-3M melanoma
86.8 µM: RXF 393 renal
not listed: A498 renal
> 100 µM: all other assays above
